Data: patent publication US20260167927A1, “GLOMUS CELL-LIKE CELLS AND PRODUCTION METHOD THEREOF” (NATIONAL INSTITUTE OF ADVANCED INDUSTRIAL SCIENCE AND …, priority 2022, published 2026)

System: glomus cell-like cells
Assay: ATP production by glomus cell-like cells in response to hypoxic stimulation with ion channel inhibitors
Type: cell-based, human
Conditions: for effect on ATP production in response to hypoxic stimulation: 2% O2, 10 to 30 minutes, vs KRB without inhibitor
Procedure: Glomus cell-like cells on days 16 to 19 of induction were used. With Krebs-Ringer buffer (KRB: 120 mM of NaCl, 5 mM of KCI, 25 mM of NaHCO3, 2.5 mM of CaCI2, 1.1 mM of MgCl2, 0.1% bovine serum albumin, 2.8 mM of glucose, pH 7.2), glomus cell-like cells were washed twice. After adding KRB, the cells were incubated in a hypoxic CO2 incubator (2% O2) for 10 to 30 minutes. The supernatant was collected, and then ATP was measured using the ATP Determination Kit (Thermo Fisher Scientific: A22066). Cells were lysed in RIPA buffer (FUJIFILM Wako Pure Chemical Corporation: 182-02451), and the total protein content was determined using a Pierce™ BCA Protein Assay Kit (Thermo Fisher Scientific: 23225). ATP measurement results were corrected according to the total protein content.
Using KRB containing the K^+ channel inhibitor tetraethylammonium chloride (FUJIFILM Wako Pure Chemical Corporation: 206-04501) (final concentration: 5 mM), the Ca^2+ channel inhibitor nifedipine (FUJIFILM Wako Pure Chemical Corporation: 141-05783) (final concentration: 5 μM), or the Na^+ channel inhibitor lidocaine (FUJIFILM Wako Pure Chemical Corporation: 120-02691) (final concentration: 1 μM), cells were subjected to hypoxic stimulation using the procedure described in (3-1) above, and the amount of ATP production was analyzed. KRB without ion channel inhibitors was used as a control to analyze ATP production similarly.

`CCN(CC)CC(=O)Nc1c(C)cccc1C` [lidocaine, Lidocaine] was tested, and the “effect on ATP production in response to hypoxic stimulation” value (lidocaine 1 μM in KRB) was “inhibitory effect”.

For `CC[N+](CC)(CC)CC.[Cl-]` [tetraethylammonium chloride], the “effect on ATP production in response to hypoxic stimulation” value (tetraethylammonium chloride 5 mM in KRB) was “promoting effect”.

For apyrase, the “ATP detected after hypoxic stimulation” value (apyrase (ATPase) 2 U/mL added, FIG. 11) was “no ATP was detected”.
